What was measured:
Assay in all cases: ROS measurement with H2DCFDA
Format in all cases: cell-based, human
CAPAN-1 cells = conditions: for fold increase of ROS levels: 5 h; for H2DCFDA fluorescence (ROS): 5.8 at 0 μmol/L; for reduction of compound-induced ROS levels by NAC: CAPAN-1, NAC 5 mmol/L
Experimental: (§1) Cellular ROS content was determined using the 2′,7′-dichlorodihydrofluorescein diacetate probe (H2DCFDA). Cells were seeded in 24-well plates (50 000 cells/well) in phenol red-free DMEM 24 h prior to treatments. Cells were treated with different concentrations of compound 1, 2 and 5 (2.5, 5 or 10 μmol/L) or vehicle alone as a control, for 5 or 24 hours at 37°C. In some experiments, cells were co-treated with the compounds plus 5 mmol/L NAC. After treatments, cells were washed with PBS and incubated with 1 μmol/L H2DCF-DA in PBS for 30 minutes in the dark. After washing, cells were collected with trypsin and analyzed by flow cytometry using a FACS-Calibur flow cytometer (Becton-Dickinson®, Immunofluorometry Systems, Mountain View, CA, USA). The geometric mean fluorescence intensity of 10 000 cells was established using CellQuestTM software (Becton Dickinson). The fluorescence fold-increase versus untreated cells was determined for each treatment.

MCF-7 cells = conditions: MCF-7, 10 μmol/L, 24 h
Experimental: as §1

JURKAT cells = conditions: 10 μmol/L, 24 h
Experimental: as §1

SMILES | fold increase of ROS levels (CAPAN-1 cells; CAPAN-1, 2.5 μmol/L) | H2DCFDA fluorescence (ROS) (CAPAN-1 cells; CAPAN-1, 2.5 μmol/L, 24 h) | fold increase of ROS levels (CAPAN-1 cells; CAPAN-1, 5 μmol/L) | H2DCFDA fluorescence (ROS) (CAPAN-1 cells; CAPAN-1, 5 μmol/L, 24 h) | fold increase of ROS levels (CAPAN-1 cells; CAPAN-1, 10 μmol/L) | H2DCFDA fluorescence (ROS) (CAPAN-1 cells; CAPAN-1, 10 μmol/L, 24 h) | reduction of compound-induced ROS levels by NAC (CAPAN-1 cells) | increase in ROS levels (MCF-7 cells) | ROS induction with FeCl2 co-incubation (CAPAN-1 cells; CAPAN-1, compound 10 μmol/L 24 h, FeCl2 100 μmol/L co-incubation) | increase in ROS levels in FeCl2-pretreated vs non-pretreated cells (CAPAN-1 cells; CAPAN-1, compound 10 μmol/L 24 h, FeCl2 100 μmol/L pre-incubation) | ROS levels versus control cells (JURKAT cells) | intracellular ROS levels vs untreated cells (CAPAN-1 cells; CAPAN-1, 10 μmol/L, 24 h)
c1ccc(CN2CCC[C@H]2[C@@H]2CCCN2Cc2ccccn2)nc1 [Compound 1] | 1.73 fold | 10.9 | 2.01 fold | 11.79 | 2.61 fold | 32.6 | 31.1% |  |  |  |  | 
CN(C)c1ccnc(CN2CCC[C@H]2[C@@H]2CCCN2Cc2cc(N(C)C)ccn2)c1 [Compound 2] | 1.39 fold |  | 1.66 fold |  | 2.53 fold |  | 26.8% | 7 fold | abolished ROS induction | 1.5 fold | 1.94 folds | 
CN1CCN(Cc2ccccn2)CCN(Cc2ccccn2)CC1 [Compound 5] |  |  |  |  |  |  |  |  |  |  |  | 2.4 fold

Reference: article PMC4569415, “Pro-Oxidant Activity of Amine-Pyridine-Based Iron Complexes Efficiently Kills Cancer and Cancer Stem-Like Cells” (PLoS ONE, 2015)
